molecular target: T1, Forkhead box protein M1 [235-327] (Human, UniProt Q08050); assay: Fluorescence-based Affinity Assay
T1 construct: 235-327
T1 sequence (Q08050 whole entry): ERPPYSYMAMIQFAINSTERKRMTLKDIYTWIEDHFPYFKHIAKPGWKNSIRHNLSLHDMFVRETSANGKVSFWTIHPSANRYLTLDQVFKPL
Description: The fluorescence emission spectra of tryptophan residues were used to monitor the changes in local chemical environment of protein upon ligand binding [Zhu et al., Bioorg. Chem., 68:259-265; Tyler et al., Biochemistry, 49:951-957]. The protein concentration was kept at a constant. Changes in fluorescence were measured upon titration of tested compound to protein solution. Fluorescence was measured by a PE fluorescence spectrophotometer.

For `CC1=C(C(=O)OC(C)C)C(c2ccc([N+](=O)[O-])cc2)NC(=S)N1` (stereo unspecified) [CID 2748293], which Kd is on record?
Its Kd is 17 µM.

How did the Kd turn out when `COc1ccccc1C(=O)C(CCC(=O)O)c1ccccc1OC` (stereo unspecified) [CID 2748371] was run?
The Kd was 26 µM.

Which Kd does the source give for `O=c1[nH]nc(-c2ccccc2)c(=S)n1-c1ccc(F)c(Cl)c1` [CID 2751638] here?
Its Kd is 120 µM.

For `N=c1sc(C(=O)c2cccs2)nn1-c1ccccc1` [CID 2753793], which Kd is on record?
The Kd was 3.8 µM.

For `CCC[C@H]1C(=O)N[C@]2(C(=O)O[C@@H]2[C@H]2C=CCCC2)[C@@]1(C)O` [CID 50943806], which Kd is on record?
Its Kd is 230 µM.

For `Cc1cccc2c(/C=C/C(=O)O)cc(C(C)C)c(O)c12` [CID 53708511], which Kd is on record?
The Kd was 56 µM.

— BindingDB's records for doi:10.1016/j.bioorg.2016.11.003 (Linyi People's Hospital, 2017)
